Values of other authors, collected in patent US10835585B2, “Shared neoantigens” (priority 2015, dated 2020).

How the values were obtained:
[1] = system: ovarian carcinoma patients
[2] = more than 25 clinical trials
healthy human volunteers = settings: 8 healthy volunteers, one single s.c. administration, versus 4 placebo subjects; whole blood
[3] = system: serum prostate specific antigen (PSA); settings: advanced hormone refractory prostate cancer; personalized vaccination combined with a low dose of estramustine

Compound	generation of NY-ESO-1-specific CD4+ and CD8+ T-cell and antibody responses ([1]; 1.4 mg poly-ICLC and Montanide added to OLP, compared to OLP alone or OLP and Montanide, s.c.)	patients showing induction of CD4+ and CD8+ T cell, as well as antibody responses to the peptide ([1]; ovarian carcinoma patients, poly-ICLC with NY-ESO-1 peptide vaccine and Montanide, phase 1) [%]	toxicity profile [2]	differential expression of genes versus placebo (healthy human volunteers)	patients with ≥50% decrease in serum prostate specific antigen (PSA) [3] [%]
Polyinosinic-Polycytidylic Acid-poly-L-lysine Carboxymethylcellulose [poly-ICLC]	markedly enhanced	> 90	relatively benign toxicity profile	up to 212 genes	
C[C@]12CC[C@@H]3c4ccc(OC(=O)N(CCCl)CCCl)cc4CC[C@H]3[C@@H]1CC[C@@H]2O [estramustine]					54
